Data reported in PubChem BioAssay AID1324 (NMMLSC, 2008).
Active and inactive are the calls of the source. No rule for the calls is given here.

molecular target: glutathione S-transferase (GST-GSH binding); test: GST–glutathione interaction disruption – biochemical, multiplex beads, flow cytometry, HPSMTB buffer, profiling panel (AID 1324); details: multiplex bead flow cytometry, MCF, concentration not given here;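 also: glutathione beads loaded with GST-green fluorescent protein and no fluorescent Bim peptide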

Q: For `CC1Nc2ccccc2C(=O)N1NS(=O)(=O)c1ccccc1` (stereo not given), which percent span inhibition is on record?
A: inactive

Q: `COc1ccccc1Oc1ccc2c(c1)C(=O)N(c1ccccc1)C2=O` was tested. Which percent span inhibition did it give?
A: inactive

Q: Which percent span inhibition does the source give for `Cc1cccc(C(=O)N2CCC(c3nc(-c4ccc(S(=O)(=O)N5CCOCC5)cc4)no3)CC2)c1` here?
A: inactive

Q: Which percent span inhibition does the source give for `Cc1cc(/C=C(/C#N)C(=O)Nc2ccc(Cl)cc2)c(C)n1-c1cccnc1` here?
A: inactive

Q: `O=C(OCc1nc2ccccc2[nH]1)C12CC3CC(CC(C3)C1)C2` was tested. Which percent span inhibition did it give?
A: inactive

Q: Which percent span inhibition does the source give for `CN(C)C(Cc1ccccc1)C(=O)c1cccs1` (stereo not given) here?
A: inactive

Q: With `COc1ccc(/C=C(/C(=O)c2cccs2)N2C=CC=CC2=C(C#N)C#N)cc1` as the compound, how does the percent span inhibition read?
A: inactive

Q: With `COc1ccc(C)cc1-n1c(=O)c2ccccc2c2ccccc2c1=O` as the compound, how does the percent span inhibition read?
A: inactive

Q: `O=C1/C(=C\c2ccc(-c3ccccc3Cl)o2)SC(=S)N1CC1CCCO1` (stereo not given) was tested. Which percent span inhibition did it give?
A: inactive

Q: For `CN(CCc1ccccn1)C(=O)CCC1CCCN(C(=O)NC2CCCCC2)C1` (stereo not given), which percent span inhibition is on record?
A: inactive

Q: For `CCOC(=O)C1CCCN(c2ncnc3c2cnn3-c2cccc(C)c2)C1` (stereo not given), which percent span inhibition is on record?
A: inactive

Q: With `COc1ccc(OC)c(-n2c(-c3ccc(C)cc3)n[nH]c2=S)c1` as the compound, how does the percent span inhibition read?
A: inactive

Q: With `O=C(O)CC/C(=C\c1cc([N+](=O)[O-])ccc1Cl)c1nc2ccccc2s1` as the compound, how does the percent span inhibition read?
A: inactive

Q: With `CN1C2C=C3C(C#N)=C(N)C(C#N)(C#N)[C@@H](c4ccsc4)[C@@H]3C1CC2` (stereo not given in full) as the compound, how does the percent span inhibition read?
A: inactive

Q: `CC(C)c1ccc(C2CC(c3ccc(Br)cc3)=NN2C(N)=S)cc1` (stereo not given) was tested. Which percent span inhibition did it give?
A: inactive

Q: For `O=C(c1ccccc1)c1ccc2nc(-c3ccco3)c(-c3ccco3)nc2c1`, which percent span inhibition is on record?
A: inactive

Q: Which percent span inhibition does the source give for `Cc1ccc(-c2n[nH]c(=S)n2-c2ccccc2)cc1` here?
A: inactive

Q: For `Cc1cccc(N2C(S)=C(C#N)C(=O)NC2c2cccs2)c1` (stereo not given), which percent span inhibition is on record?
A: inactive

Q: How did the percent span inhibition turn out when `Cc1nnc(NCc2n[nH]c(=O)c3ccccc23)c2ccccc12` was run?
A: inactive

Q: For `O=C(NC1=NCCS1)NC12CC3CC(CC(C3)C1)C2`, which percent span inhibition is on record?
A: inactive

Q: Which percent span inhibition does the source give for `COc1cc(/C=N/Nc2nc3c(c(=O)n(C)c(=O)n3C)n2Cc2ccccc2)ccc1OC(=O)c1ccco1` here?
A: inactive

Q: With `CCOc1ccc(C2=Nn3c(nnc3-c3ccccn3)SC2)cc1` as the compound, how does the percent span inhibition read?
A: inactive

Q: For `Cc1ccc(S(=O)(=O)N2CCCCC2)cc1NC(=O)COC(=O)c1ccccc1F`, which percent span inhibition is on record?
A: inactive

Q: For `O=C(O)CC1S/C(=N/N=C/C=C/c2ccccc2[N+](=O)[O-])NC1=O` (stereo not given), which percent span inhibition is on record?
A: inactive

Q: `O=C(NCc1ccccn1)c1ccc2nc(-c3ccco3)c(-c3ccco3)nc2c1` was tested. Which percent span inhibition did it give?
A: inactive

Q: `Cn1cccc1CC(=O)N/N=C\c1ccccc1` was tested. Which percent span inhibition did it give?
A: inactive

Q: For `O=[N+]([O-])c1cccc(S(=O)(=O)NCC2CCCO2)c1` (stereo not given), which percent span inhibition is on record?
A: inactive

Q: How did the percent span inhibition turn out when `O=C(Nc1ccc2nc(-c3ccco3)c(-c3ccco3)nc2c1)N1CCN(c2ccccn2)CC1` was run?
A: inactive

Q: How did the percent span inhibition turn out when `CCN(CC)CCN(C(=O)c1ccc(N2C(=O)CCC2=O)cc1)c1nc2cc3c(cc2s1)OCCO3` was run?
A: inactive

Q: Which percent span inhibition does the source give for `COc1cccc2c(SCC(=O)N/N=C/c3ccc(O)cc3O)cc(C)nc12` here?
A: inactive

Q: Which percent span inhibition does the source give for `CCOc1ccc(C(=O)Nc2nnn(CC)n2)cc1` here?
A: inactive

Q: For `CC(=O)N1CCN(C(=O)c2ccc(-n3c(C)ccc3C)cc2)CC1`, which percent span inhibition is on record?
A: inactive

Q: With `COc1ccc(OC)c(NC(=O)CCCN2C(=S)NC(C)(C)CC2C)c1` (stereo not given) as the compound, how does the percent span inhibition read?
A: inactive

Q: For `COC(=O)CSc1nccc(-c2cccs2)n1`, which percent span inhibition is on record?
A: inactive

Q: `CCOC(=O)c1c(NC(C)=O)sc2c(O)c(Br)cc(Br)c12` was tested. Which percent span inhibition did it give?
A: inactive

Q: For `Clc1ccc2c(N/N=C/c3ccccc3Br)ccnc2c1`, which percent span inhibition is on record?
A: inactive

Q: `CCC(=O)NC(c1ccc(C)cc1)c1cc([N+](=O)[O-])c2cccnc2c1O` (stereo not given) was tested. Which percent span inhibition did it give?
A: inactive

Q: Which percent span inhibition does the source give for `Cc1cc(C)c2c(N)c3cccc(C)c3nc2n1` here?
A: inactive

Q: For `CCOC(=O)c1nc(Nc2ccc(N3CCC(C)CC3)cc2)c2ccccc2n1`, which percent span inhibition is on record?
A: inactive

Q: Which percent span inhibition does the source give for `CNc1ccc(Br)cc(C(=O)/C=C/c2cc(OC)ccc2OC)c1=O` here?
A: inactive

Q: With `O=C(Cc1ccc(-c2ccccc2)cc1)NC1CCCC1` as the compound, how does the percent span inhibition read?
A: inactive

Q: Which percent span inhibition does the source give for `c1ccc(-c2nc(N3CCCCC3)nc3ccccc23)cc1` here?
A: inactive

Q: With `CC1N(C)c2cccc3cccc(c23)N1C` as the compound, how does the percent span inhibition read?
A: inactive

Q: `Cc1ccc(C2=N/C(=C/c3cccs3)C(=O)N2Nc2ccccc2)cc1` was tested. Which percent span inhibition did it give?
A: inactive

Q: Which percent span inhibition does the source give for `Cc1ccc(C)n1-c1ccc(N2CCOCC2)cc1` here?
A: inactive

Q: `CS(=O)(=O)NN1C(=O)c2ccccc2NC1c1ccccc1` (stereo not given) was tested. Which percent span inhibition did it give?
A: inactive

Q: Which percent span inhibition does the source give for `O=C(Nc1cccc(-c2ccc3nncn3n2)c1)c1ccco1` here?
A: inactive

Q: With `Cc1cc(C)n(CC(=O)N/N=C/c2cccc([N+](=O)[O-])c2)n1` as the compound, how does the percent span inhibition read?
A: inactive

Q: For `O=C(Nc1cccc(C(F)(F)F)c1)c1ccc2nc(-c3ccco3)c(-c3ccco3)nc2c1`, which percent span inhibition is on record?
A: inactive

Q: `COc1ccc(C2=Nc3cccc4cccc(c34)N2)cc1` was tested. Which percent span inhibition did it give?
A: inactive
